Assay results published in PubChem BioAssay (NCI).
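Protocol summary: plate cells (96-well), add compound at 5 concentrations, incubate 48 h, interpolate endpoints linearly. TGI denotes the concentration required for complete inhibition of growth.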

Assays:
Assay in all cases: NCI-60 cell line screen, 48 h
[1] = tested on: 786-0 renal
[2] = tested on: A498 renal
[3] = tested on: A549 NSCLC
[4] = tested on: ACHN renal
[5] = tested on: BT-549 breast
[6] = tested on: CAKI-1 renal
[7] = tested on: CCRF-CEM leukemia
[8] = tested on: COLO 205 colon
[9] = tested on: DU-145 prostate
[10] = tested on: EKVX NSCLC
[11] = tested on: HCC-2998 colon
[12] = tested on: HCT-116 colon
[13] = tested on: HCT-15 colon
[14] = tested on: HL-60(TB) leukemia
[15] = tested on: HOP-62 NSCLC
[16] = tested on: HOP-92 NSCLC
[17] = tested on: HS 578T breast
[18] = tested on: HT29 colon
[19] = tested on: IGROV1 ovarian
[20] = tested on: K-562 leukemia
[21] = tested on: KM12 colon
[22] = tested on: LOX IMVI melanoma
[23] = tested on: M14 melanoma
[24] = tested on: MALME-3M melanoma
[25] = tested on: MCF7 breast
[26] = tested on: MDA-MB-231 breast
[27] = tested on: MDA-MB-435
[28] = tested on: MDA-N
[29] = tested on: NCI-H226 lung
[30] = tested on: NCI-H23 lung
[31] = tested on: NCI-H460 lung
[32] = tested on: NCI-H522 lung
[33] = tested on: NCI/ADR-RES ovarian
[34] = tested on: OVCAR-3 ovarian
[35] = tested on: OVCAR-4 ovarian
[36] = tested on: OVCAR-5 ovarian
[37] = tested on: OVCAR-8 ovarian
[38] = tested on: PC-3 prostate
[39] = tested on: RPMI-8226 leukemia
[40] = tested on: RXF 393 renal
[41] = tested on: SF-268 CNS
[42] = tested on: SF-295 CNS
[43] = tested on: SK-MEL-2 melanoma
[44] = tested on: SK-MEL-28 melanoma
[45] = tested on: SK-MEL-5 melanoma
[46] = tested on: SK-OV-3 ovarian
[47] = tested on: SN12C renal
[48] = tested on: SNB-19 CNS
[49] = tested on: SNB-75 CNS
[50] = tested on: SR leukemia
[51] = tested on: SW-620 colon
[52] = tested on: T-47D breast
[53] = tested on: TK-10 renal
[54] = tested on: U251 CNS
[55] = tested on: UACC-257 melanoma
[56] = tested on: UACC-62 melanoma
[57] = tested on: UO-31 renal

Measured: TGI

OC(Cc1cccnc1)(c1ccccc1)c1ccccc1
> 100 µM: all assays above
